Here are results for 1 compound from US11365186B2, “Substituted benzimidazoles, their preparation and their use as pharmaceuticals” (Epigenetix, Inc., priority 2015, dated 2022).

pIC50: −log10 of the molar value.

The term pIC50 denotes the negative decadic logarithm of the IC50, by convention in mol/L.

This test deals with human C-Myc transcription in MV-4-11 cells. Put plainly: Transcription of human C-Myc in human leukemic MV-4-11 cells (QuantiGene 2.0). It counts as cell-based. To be noted: inhibition of C-Myc mRNA transcription, 4 hours treatment, read-out: IC50 MV-4-11 Cell. How it is done:
b) Transcription of Human C-Myc in Human Leukemic MV-4-11 Cells:
The effect of compounds on transcription of human C-Myc gene is monitored in human B-myelomonocytic leukemia cell line MV-4-11 (from American Type Culture Collection (ATCC), Manassas, Va., USA) using QuantiGene 2.0 assay kit (Affymetrix, Santa Clara, Calif., USA).
Typically, 8,000 MV-4-11 cells are plated in sterile 96-well plates (Costar #3598 from Fisher Scientific Canada, Ottawa, Ontario, Canada) in Iscove's medium supplemented with 10% fetal bovine serum, glutamine (2 mM), and penicillin (100 I.U.) and streptomycin (100 μg/mL) (all from Wisent Inc., St. Bruno, Quebec, Canada). Compounds are dissolved in DMSO at 30 mM. A series of 1:3 dilutions are first made in DMSO, and further […] dilutions are made in serum-containing cell culture media. The final concentration of DMSO is 0.1% in cell culture media. After cells are treated with various concentrations of test compound for 4 hours, cells are lysed using Quantigene 2.0 sample processing kit (#QS0100). C-Myc mRNA is detected using a QuantiGene 2.0 assay kit (#QS0009) with gene-specific probe to human C-Myc (#SA-50182) following the manufacturer's recommendations. Luminescence signals are read on Flexstation II microplate reader (Molecular Devices, Sunnyvale, Calif., USA).

Regarding `COC1CC(c2nc3ccc(-c4cc(C)c(=O)n(C)c4)cc3n2CCOCC(F)(F)F)C1` (stereo not shown) [Compound 63, 5-[2-(3-methoxycyclobutyl)-1-(2-(2,2,2-trifluoroethoxy)ethyl)-1H-benzo[d]imidazol-6-yl]-1,3-dimethylpyridin-2(1H)-one], the pIC50 is 7.77.
